# Source: patent US20090215669A1, “COMPOSITIONS AND METHODS FOR TREATMENT OF DIABETES” (DIA-B TECH LIMITED, priority 2005, published 2009)
# Like-named read-outs stand apart in the source and are kept apart here. Marks after values point to notes of the source that are not given here. Peptide text beside a SMILES is read from it.
# How the values were obtained:
# female Zucker fa/fa rats [1] = test: Oral ISF402 followed by intraperitoneal insulin tolerance test (IPITT) in female Zucker fa/fa rats; format: in vivo, rat
# Procedure: Female Zucker fa/fa rats were purchased from Monash Animal Services (Monash University, Clayton, Australia). Rats were housed in the Biochemistry and Molecular Biology Animal House (Monash University, Victoria, Australia) and allowed to acclimatize for 7 days in an environmentally controlled room at 22° C. Rats were fed normal chow and water ad libitum. All experiments were performed according to Monash University Animal Care and Ethics Committee guidelines and approved by the Monash University Animal ethics committee. Rats of 16-18 weeks of age were fasted overnight with free access to water then anaesthetised with pentobarbitone (Nembutal, Phone Merieux, QLD, Australia) administered intraperitoneally (IP) at 35 mg/kg body weight. Blood glucose was monitored using Medisense glucometers (Abbott Laboratories, Abbott Park, Ill.) for one hour prior to administration of test substances. ISF402 was administered at 3 mg/kg by IP with 2 U/kg of bovine insulin (n=6) and controls were injected IP with insulin alone (n=8). Two experiments were performed where ISF402 was given orally. In the first experiment, controls were given saline orally by gavage (n=5) and the test group were given ISF402 orally at 15 mg/kg (n=5). After 15 minutes, insulin (2 U/kg) was injected IP. The procedure was repeated three days later with the control rats once again given saline and the treated rats given 30 mg/kg ISF402. A second experiment was performed on a separate group of rats where controls were given saline orally as before (n=5) and treated rats were given ISF402 orally at 30 mg/kg (n=5), followed 15 minutes later by IP injection of 2 U/kg insulin. For both experiments, after administration of peptide blood was collected from the tail vein and glucose measured immediately. Serum samples were also collected for later measurement of C-peptide and insulin using Linco Rat C-peptide and Insulin RIA kits according to the manufacturer's instructions (Linco Research Inc, St Charles, Mo.).
# [2] = Solubility of ISF402 at various pH and temperatures; format: physicochemical; conditions: for solubility at 24 h: 25 mM ammonium bicarbonate buffer
# Procedure: Solid ISF402 was added to 50 μL aliquots of 25 mM ammonium bicarbonate buffer until no more solid dissolved. The total weight of the peptide added to each tube was noted and the pH of each solution was adjusted to approximately pH 8 by the addition of 1 M NaOH. Samples were incubated with constant shaking at either room temperature (23-25° C.) or 37° C. for 24 hours then centrifuged at 16000×g for 15 minutes. 2 μL aliquots of each supernatant were diluted with milliQ-H2O to an estimated concentration of 1 mg/mL. Samples were stored at −20° C. for later analysis by HPLC using UV detection (214 nm) to determine the exact concentration of ISF402. The pH of the remaining supernatant was measured. The pH was lowered by the addition of 2 μL of 5M HCl and tube contents were mixed and incubated under the two temperature conditions. The cycle of pH lowering, incubation and sampling was repeated until a pH of between 2 and 3 was achieved.
# insulin multimer = target: T1, insulin multimer (Bos taurus, UniProt P01317); test: Gel filtration chromatography of insulin mixed with ISF402; format: biochemical
# T1 construct: mixing insulin with ISF402 and separating molecular complexes by gel filtration chromatography
# Excerpt: The effect of ISF402 on the multimerisation of insulin was examined in vitro by mixing insulin with ISF402 and separating molecular complexes by gel filtration chromatography, which separates on the basis of size (FIG. 7).
# female Zucker fa/fa rats [3] = test: Intravenous injection of female Zucker fa/fa rats: blood glucose, serum insulin, C-peptide, triglyceride; format: in vivo, rat; conditions: for Change in Serum Triglyceride levels compared to the 0 time point: ISF402 alone 4.5 mg/kg, insulin, insulin + ISF402 1.5 mg/kg, mean ± SEM (n = 5); for maximum reduction in blood glucose: 45 minutes after administration
# [4] = system: C2C12 mouse myotube cells; test: Microphysiometry (extracellular acidification rate) in C2C12 cells; format: cell-based
# Procedure: C2C12 mouse myotube cells were seeded onto supports and differentiated. The cells were then placed in a Cytosensor (Molecular Devices) in non-buffered pH sensitive RPMI 1640 media. Once the cells were equilibrated at 37° C. with RPMI 1640 media (zero control), ISF402, insulin or ZnCl2 at increasing concentrations were added for a duration of 20 minutes, for each treatment. The Cytosensor measured the changed in pH as a response of cells to the treatment.
# The activity of the combination of insulin and ISF402 in insulin sensitisation was explored in C2C12 muscle cells using microphysiometry, a technique that measures extracellular acidification as an indicator of cell metabolism. An ISF402 concentration of 0.1 μM was used to test for sensitisation of insulin responsiveness as this concentration produces a sub-maximal (˜20%) response in C2C12 cells. In the presence of 0.1 μM ISF402, the cellular response to insulin was increased as shown by increasing extracellular acidification rate (ECAR) with increasing concentrations of insulin, particularly at low insulin concentrations (FIG. 3).
# male Zucker fa/fa rats = test: Intravenous injection of male Zucker fa/fa rats: blood glucose, serum insulin, C-peptide; format: in vivo, rat; conditions: 1 U/kg of bovine insulin iv
# Procedure: The Monash University Animal Ethics Committee approved all procedures performed on experimental animals. Zucker rats were purchased from the Monash University Central Animal Facility. Insulin and ISF401 were injected through the femoral vein while the rat was under anaesthesia (Pentobarbitone) and rats were humanely killed while still unconscious at the end of the procedure. The insulin concentration used for all in vivo experiments was 1 unit per kg of body weight. Blood was collected from the tail vein and glucose concentrations were measured using a Medisense glucometer. Insulin and C-peptide concentrations were measured in serum samples using a Linco Rat Insulin RIA kit according to the manufacturers instructions. Group sizes were between 5 and 8 rats per treatment.
# To investigate sex differences in the insulin sensitizing effect of ISF402, age-matched male Zucker fa/fa rats were injected intravenously with ISF402 (1.5 mg/kg) and insulin as described above for female rats. […] In comparison, co-injection of ISF402 with the insulin led to a decrease in blood glucose 20 minutes after injection which remained low for a further 25 minutes (FIG. 13A). The greatest reduction in blood glucose was 0.98±0.31 mmol/L and was achieved 30 minutes after injection. […]
# female Zucker fa/fa rats [5] = test: Intraperitoneal injection of insulin with ISF402 in female Zucker fa/fa rats; format: in vivo, rat; conditions: IP, 2 U/kg bovine insulin
# Procedure: Female Zucker fa/fa rats were purchased from Monash Animal Services (Monash University, Clayton, Australia). Rats were housed in the Biochemistry and Molecular Biology Animal House (Monash University, Victoria, Australia) and allowed to acclimatize for 7 days in an environmentally controlled room at 22° C. Rats were fed normal chow and water ad libitum. All experiments were performed according to Monash University Animal Care and Ethics Committee guidelines and approved by the Monash University Animal ethics committee.
# Rats of 16-18 weeks of age were fasted overnight with free access to water then anaesthetised with pentobarbitone (Nembutal, Phone Merieux, QLD, Australia) administered intraperitoneally (IP) at 35 mg/kg body weight. Blood glucose was monitored using Medisense glucometers (Abbott Laboratories, Abbott Park, Ill.) for one hour prior to administration of test substances. ISF402 was administered at 3 mg/kg by IP with 2 U/kg of bovine insulin (n=6) and controls were injected IP with insulin alone (n=8). Two experiments were performed where ISF402 was given orally. In the first experiment, controls were given saline orally by gavage (n=5) and the test group were given ISF402 orally at 15 mg/kg (n=5). After 15 minutes, insulin (2 U/kg) was injected IP. […] For both experiments, after administration of peptide blood was collected from the tail vein and glucose measured immediately. […]
# [6] = oral ISF402 followed by IP insulin injection
# [7] = iv, ISF402 4.5 mg/kg without insulin
# T1 sequence (P01317 25-54 limits assumed): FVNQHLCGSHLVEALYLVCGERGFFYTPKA
# T1 sequence (P01317 85-105 limits assumed): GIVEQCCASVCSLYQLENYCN
compound,measurement,setting,value
"CC(C)[C@H](N)C(=O)N[C@@H](Cc1c[nH]cn1)C(=O)N[C@H](C(=O)N[C@@H](CC(=O)O)C(N)=O)[C@@H](C)O [ISF402, Val-His-Thr-Asp-NH2] (H-VHTD-NH2)",blood glucose in IPITT compared to control,"female Zucker fa/fa rats [1]; ISF402 15 mg/kg oral, insulin 2 U/kg IP 15 minutes later",did not reach statistical significance
same,blood glucose in IPITT compared to the insulin-injected control group,female Zucker fa/fa rats [1]; ISF402 30 mg/kg oral to the same rats three days after 15 mg/kg,significant reduction in blood glucose
same,time of greatest decrease in blood glucose after administration,"female Zucker fa/fa rats [1]; oral 30 mg/kg ISF402, IPITT",2 h
same,C-peptide concentrations,female Zucker fa/fa rats [1]; [6],did not change
same,circulating insulin concentrations,female Zucker fa/fa rats [1]; [6],did not change
same,blood glucose in IPITT compared to control,female Zucker fa/fa rats [1]; single dose of 30 mg/kg ISF402 oral by gavage,significant decrease in blood glucose
same,solubility at 24 h,"[2]; 37° C., pH 6, read-out: minimum solubility",179 mg/mL
same,solubility at 24 h,"[2]; both at room temperature and 37° C., below pH 4.6 and above pH 6.9, read-out: solubility",300 to 450 mg/mL
same,solubility at 24 h,"[2]; room temperature, pH 6.3, read-out: lowest solubility",165 mg/mL
same,pH of minimum solubility,[2]; both temperatures,5.7-6.3
same,effect on the size of the insulin multimer,insulin multimer,reduces the size of the insulin multimer
same,elution volume of insulin when mixed with ISF402,insulin multimer; insulin without pre-mixing eluted at 14-15 mL,16 to 17 mL
same,Change in Serum Triglyceride levels compared to the 0 time point,female Zucker fa/fa rats [3]; Time 0 minutes,0 mg/dL
same,Change in Serum Triglyceride levels compared to the 0 time point,female Zucker fa/fa rats [3]; Time 10 minutes,+11.3 ± 5.4 mg/dl
same,Change in Serum Triglyceride levels compared to the 0 time point,female Zucker fa/fa rats [3]; Time 45 minutes,−16 ± 7.2^a mg/dl
same,Change in Serum Triglyceride levels compared to the 0 time point,female Zucker fa/fa rats [3]; Time 60 minutes,+44.9 ± 42.7 mg/dl
same,maximum reduction in blood glucose,"female Zucker fa/fa rats [3]; iv, ISF402 4.5 mg/kg without exogenous insulin",1.02 ± 0.27 mmol/L
same,circulating insulin,female Zucker fa/fa rats [3]; [7],no observed increase in circulating insulin
same,serum C-peptide concentrations,female Zucker fa/fa rats [3]; [7],reduced
same,optimum ISF402 dose,"female Zucker fa/fa rats [3]; iv, co-injected with insulin 1 U/kg",1.5 mg/kg
same,optimal intravenous dose of ISF402,"female Zucker fa/fa rats [3]; iv, without exogenous insulin",4.5 mg/kg
same,glucose lowering response across the range of ISF402 doses,"female Zucker fa/fa rats [3]; iv, 0.5-4.5 mg/kg with insulin, 3-10 mg/kg alone, AUC over 60 minutes (FIG. 2A)",dose dependent and bell shaped
same,magnitude of the maximal reduction in blood glucose compared to controls,"female Zucker fa/fa rats [3]; iv, ISF402 4.5 mg/kg vs saline, ISF402 1.5 mg/kg with insulin vs insulin alone",0.95 mmol/L
same,"response in C2C12 cells (sub-maximal, extracellular acidification)",[4]; 0.1 μM ISF402,~20%
same,"cellular response to insulin (extracellular acidification rate, ECAR)","[4]; in the presence of 0.1 μM ISF402, increasing insulin concentrations",increased
"Insulin: Insulin (Bovine pancreas) containing 0.6% zinc, purchased from Sigma",blood glucose response to insulin alone,male Zucker fa/fa rats,no decrease at all
same,Change in Serum Triglyceride levels compared to the 0 time point,female Zucker fa/fa rats [3]; Time 0 minutes,0 mg/dL
same,Change in Serum Triglyceride levels compared to the 0 time point,female Zucker fa/fa rats [3]; Time 10 minutes,+39.6 ± 15.1 mg/dl
same,Change in Serum Triglyceride levels compared to the 0 time point,female Zucker fa/fa rats [3]; Time 45 minutes,+21.1 ± 23.9 mg/dl
same,Change in Serum Triglyceride levels compared to the 0 time point,female Zucker fa/fa rats [3]; Time 60 minutes,+33.3 ± 19.8 mg/dl
same,blood glucose response to insulin alone,"female Zucker fa/fa rats [3]; female rats, 1 U/kg of bovine insulin iv",small decrease in blood glucose
same,maximum reduction in blood glucose,"female Zucker fa/fa rats [3]; iv, insulin 1 U/kg + ISF402 1.5 mg/kg, or insulin alone at the same time point",0.68 ± 0.22 mmol/L
same,blood glucose after insulin alone,female Zucker fa/fa rats [5],only a small reduction in blood glucose
